Source: paper PMC2808337, “Lactococcus lactis, an Alternative System for Functional Expression of Peripheral and Intrinsic Arabidopsis Membrane Proteins” (PLoS ONE, 2010)

What was measured:
[1] = target: T1, ceQORH (Arabidopsis thaliana, UniProt Q9SV68); assay: spectrophotometric NBT reduction to formazan, […] nm; type: biochemical; details: 100 µM NBT, 100 µM NADPH, soybean lipids, 10 mM Tris-HCl pH 8.0, artificial electron acceptor
T1 construct: mostly monomer, expected mass 34 kDa
T1 sequence (Q9SV68 1-329): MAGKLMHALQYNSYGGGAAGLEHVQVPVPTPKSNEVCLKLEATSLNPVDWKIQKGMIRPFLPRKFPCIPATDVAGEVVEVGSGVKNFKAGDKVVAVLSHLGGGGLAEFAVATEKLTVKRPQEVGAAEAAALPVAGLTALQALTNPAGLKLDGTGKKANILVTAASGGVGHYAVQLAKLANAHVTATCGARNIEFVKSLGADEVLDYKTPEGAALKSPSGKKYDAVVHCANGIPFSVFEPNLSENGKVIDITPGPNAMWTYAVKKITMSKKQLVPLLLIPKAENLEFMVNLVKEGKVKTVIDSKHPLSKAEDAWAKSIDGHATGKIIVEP

[2] = target: T2, AtAATP1 (Arabidopsis thaliana, UniProt Q39002); assay: radioactive ATP uptake into intact L. lactis cells, filtration; type: cell-based; details: 50 µM [α-32P]ATP, 50 mM potassium phosphate pH 7.0, 25 °C; empty-vector control; labelled compound
T2 construct: gene AATP1; N-terminal attB-encoded extension, C-terminal Strep-tag II; in intact Lactococcus lactis NZ9000 cells
T2 sequence (Q39002 81-624): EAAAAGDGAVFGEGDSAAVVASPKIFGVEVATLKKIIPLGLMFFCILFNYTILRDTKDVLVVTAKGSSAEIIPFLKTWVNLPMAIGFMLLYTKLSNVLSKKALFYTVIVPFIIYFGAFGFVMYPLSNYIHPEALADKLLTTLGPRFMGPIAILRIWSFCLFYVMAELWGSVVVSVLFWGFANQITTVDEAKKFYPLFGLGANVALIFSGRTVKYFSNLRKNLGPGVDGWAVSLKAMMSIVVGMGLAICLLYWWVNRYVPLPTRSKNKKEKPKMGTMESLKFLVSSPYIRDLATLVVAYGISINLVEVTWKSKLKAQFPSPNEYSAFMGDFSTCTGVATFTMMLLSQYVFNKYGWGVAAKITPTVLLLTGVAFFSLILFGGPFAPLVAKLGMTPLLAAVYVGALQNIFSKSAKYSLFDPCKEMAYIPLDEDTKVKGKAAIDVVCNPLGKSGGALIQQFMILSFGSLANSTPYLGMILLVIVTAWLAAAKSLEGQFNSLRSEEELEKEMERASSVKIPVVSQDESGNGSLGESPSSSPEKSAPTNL

SMILES: COc1cc(-c2ccc(-[n+]3nc(-c4ccccc4)nn3-c3ccc([N+](=O)[O-])cc3)c(OC)c2)ccc1-[n+]1nc(-c2ccccc2)nn1-c1ccc([N+](=O)[O-])cc1 [NBT]
- spectrophotometric NBT reduction to formazan, 550 nm [1]: the ceQORH protein, in combination with lipids and NADPH reduces the NBT to formazan

SMILES: Nc1ncnc2c1ncn2[C@@H]1O[C@H](COP(=O)(O)OP(=O)(O)OP(=O)(O)O)[C@@H](O)[C@H]1O [[α-32P] ATP]
- radioactive ATP uptake into intact L. lactis cells, filtration [2]: recombinant AtAATP1 protein produced in L. lactis is able to transport ATP

SMILES: NC(=O)C1=CN([C@@H]2O[C@H](COP(=O)(O)OP(=O)(O)OC[C@H]3O[C@@H](n4cnc5c(N)ncnc54)[C@H](OP(=O)(O)O)[C@@H]3O)[C@@H](O)[C@H]2O)C=CC1 [NADPH]
- spectrophotometric NBT reduction to formazan, 550 nm ([1]; electron donor): ceQORH protein indeed has NADPH-dependent dehydrogenase activity
